# Active and inactive are the calls of the source. The calls are words filed in the database; no cut-off is given here.
# Key:
# [1] = MRT in Sprague-Dawley rat at 10 mg/kg, po; type: ADME, organism-based; conditions: in vivo
# [2] = molecular target: CDK7/Cyclin H/MNAT1 (Homo sapiens) (UniProt P51946+P50613+P51948); assay: Inhibition of CDK7/Cyclin H/MAT1 (unknown origin) at 1 uM preincubated for 10 mins followed by substrate addition measured for 60 to 120 mins by HTRF assay relative to control; type: protein-complex assay; conditions: time 70-130 min
# C1498 = assay: Antitumor activity against mouse C1498 cells allografted in AML Balb/C mouse model assessed as reduction in tumor growth at 40 to 80 mg/kg, po administered daily for 15 days measured on every 2 days; type: functional, organism-based; conditions: dose 40-80 mg/kg, time 15.0 day
# [3] = molecular target: Cytoplasmic tyrosine-protein kinase BMX (Homo sapiens) (UniProt P51813); assay: Inhibition of BMX (unknown origin) at 1 uM preincubated for 10 mins followed by substrate addition measured for 60 to 120 mins by HTRF assay relative to control; conditions: time 70-130 min
# Cytoplasmic tyrosine-protein kinase BMX (Homo sapiens), sequence (P51813 whole entry): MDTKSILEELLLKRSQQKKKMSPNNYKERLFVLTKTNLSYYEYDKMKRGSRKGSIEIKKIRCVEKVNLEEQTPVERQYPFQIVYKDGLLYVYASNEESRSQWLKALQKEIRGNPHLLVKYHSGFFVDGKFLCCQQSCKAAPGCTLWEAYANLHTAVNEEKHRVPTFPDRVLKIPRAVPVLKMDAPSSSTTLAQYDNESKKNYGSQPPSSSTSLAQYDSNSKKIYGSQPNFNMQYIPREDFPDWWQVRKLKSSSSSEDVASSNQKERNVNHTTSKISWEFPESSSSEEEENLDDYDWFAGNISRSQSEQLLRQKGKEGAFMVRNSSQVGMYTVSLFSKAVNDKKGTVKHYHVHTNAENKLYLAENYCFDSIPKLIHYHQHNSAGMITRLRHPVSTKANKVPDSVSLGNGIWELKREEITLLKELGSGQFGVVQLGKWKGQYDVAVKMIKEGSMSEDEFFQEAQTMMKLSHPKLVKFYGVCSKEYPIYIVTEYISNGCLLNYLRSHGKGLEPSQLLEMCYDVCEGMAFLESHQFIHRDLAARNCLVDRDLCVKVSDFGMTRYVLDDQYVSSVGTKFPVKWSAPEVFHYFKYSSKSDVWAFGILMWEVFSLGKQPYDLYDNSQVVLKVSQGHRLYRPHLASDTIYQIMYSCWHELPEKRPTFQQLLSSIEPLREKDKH
# [4] = molecular target: High affinity nerve growth factor receptor (Homo sapiens) (UniProt P04629); assay: Inhibition of TRKA (unknown origin) at 1 uM preincubated for 10 mins followed by substrate addition measured for 60 to 120 mins by HTRF assay relative to control; conditions: time 70-130 min
# [5] = molecular target: CDK12/Cyclin K (Homo sapiens) (UniProt O75909+Q9NYV4); assay: Inhibition of CDK12/Cyclin K (unknown origin) at 1 uM preincubated for 10 mins followed by substrate addition measured for 60 to 120 mins by HTRF assay relative to control; type: protein-complex assay; conditions: time 70-130 min
# [6] = molecular target: CDK2/Cyclin A2 (Homo sapiens) (UniProt P24941+P20248); assay: Inhibition of CDK2/Cyclin A2 (unknown origin) at 1 uM preincubated for 10 mins followed by substrate addition measured for 60 to 120 mins by HTRF assay relative to control; type: protein-complex assay; conditions: time 70-130 min
# CDK7/Cyclin H/MNAT1 = CDK7/Cyclin H/MNAT1 (Homo sapiens, UniProt P50613); assay: Inhibition of CDK7/Cyclin H/MAT1 (unknown origin) preincubated for 10 mins followed by substrate addition measured for 60 to 120 mins by HTRF assay; type: protein-complex assay
# [7] = molecular target: Tyrosine-protein kinase Yes (Homo sapiens) (UniProt P07947); assay: Inhibition of YES (unknown origin) at 1 uM preincubated for 10 mins followed by substrate addition measured for 60 to 120 mins by HTRF assay relative to control; conditions: time 70-130 min
# [8] = molecular target: Fibroblast growth factor receptor 1 (Homo sapiens) (UniProt P11362); assay: Inhibition of FGFR1 (unknown origin) at 1 uM preincubated for 10 mins followed by substrate addition measured for 60 to 120 mins by HTRF assay relative to control; conditions: time 70-130 min
# HL-60 [9] = assay: Induction of apoptosis in human HL-60 cells assessed as late apoptotic cells at 1 uM incubated for 48 hrs by annexin V-FITC/PI staining based flow cytometry (reference value: 1.07 %); type: functional
# [10] = molecular target: Focal adhesion kinase 1 (Homo sapiens) (UniProt Q05397); assay: Inhibition of FAK (unknown origin) at 1 uM preincubated for 10 mins followed by substrate addition measured for 60 to 120 mins by HTRF assay relative to control; conditions: time 70-130 min
# Focal adhesion kinase 1 (Homo sapiens), sequence (Q05397 2-1052 limits assumed): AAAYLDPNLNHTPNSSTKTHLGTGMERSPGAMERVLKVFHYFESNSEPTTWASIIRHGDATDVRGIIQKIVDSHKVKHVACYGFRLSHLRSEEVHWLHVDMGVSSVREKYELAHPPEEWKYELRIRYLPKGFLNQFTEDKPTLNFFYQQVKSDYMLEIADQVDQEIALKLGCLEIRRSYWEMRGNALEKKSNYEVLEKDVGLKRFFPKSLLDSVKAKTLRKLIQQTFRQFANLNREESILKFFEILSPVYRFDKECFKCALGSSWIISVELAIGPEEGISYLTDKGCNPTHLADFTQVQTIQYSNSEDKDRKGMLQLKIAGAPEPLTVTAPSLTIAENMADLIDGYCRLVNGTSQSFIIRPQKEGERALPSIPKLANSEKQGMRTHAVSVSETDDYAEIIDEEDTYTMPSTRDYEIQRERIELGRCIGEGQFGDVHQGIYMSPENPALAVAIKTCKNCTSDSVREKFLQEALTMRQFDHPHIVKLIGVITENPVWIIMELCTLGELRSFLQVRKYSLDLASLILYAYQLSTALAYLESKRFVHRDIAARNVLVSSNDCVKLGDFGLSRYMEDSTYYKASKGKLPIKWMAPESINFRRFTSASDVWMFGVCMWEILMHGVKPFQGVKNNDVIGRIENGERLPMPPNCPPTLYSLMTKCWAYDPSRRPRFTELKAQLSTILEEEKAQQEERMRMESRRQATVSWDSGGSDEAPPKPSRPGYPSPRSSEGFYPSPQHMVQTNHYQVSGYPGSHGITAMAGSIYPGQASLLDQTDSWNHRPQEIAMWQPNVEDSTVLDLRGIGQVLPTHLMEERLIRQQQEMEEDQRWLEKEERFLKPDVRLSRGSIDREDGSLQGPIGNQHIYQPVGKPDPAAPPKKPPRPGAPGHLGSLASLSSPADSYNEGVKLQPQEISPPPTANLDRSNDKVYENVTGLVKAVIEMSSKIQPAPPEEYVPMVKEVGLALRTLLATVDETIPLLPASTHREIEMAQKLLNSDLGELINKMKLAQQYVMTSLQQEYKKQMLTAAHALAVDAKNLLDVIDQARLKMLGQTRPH
# [11] = molecular target: Fibroblast growth factor receptor 3 (Homo sapiens) (UniProt P22607); assay: Inhibition of FGFR3 (unknown origin) at 1 uM preincubated for 10 mins followed by substrate addition measured for 60 to 120 mins by HTRF assay relative to control; conditions: time 70-130 min
# [12] = Half life in Sprague-Dawley rat at 2 mg/kg, iv; type: ADME, organism-based; conditions: in vivo
# [13] = molecular target: CDK9/cyclin T1 (Homo sapiens) (UniProt O60563+P50750); assay: Inhibition of CDK9/Cyclin T1 (unknown origin) at 1 uM preincubated for 10 mins followed by substrate addition measured for 60 to 120 mins by HTRF assay relative to control; type: protein-complex assay; conditions: time 70-130 min
# [14] = molecular target: Ephrin type-A receptor 8 (Homo sapiens) (UniProt P29322); assay: Inhibition of EPHA8 (unknown origin) at 1 uM preincubated for 10 mins followed by substrate addition measured for 60 to 120 mins by HTRF assay relative to control; conditions: time 70-130 min
# HT-29 = assay: Antiproliferative activity against human HT-29 cells incubated for 48 hrs by CCK8 assay; type: functional
# [15] = molecular target: Ephrin type-A receptor 1 (Homo sapiens) (UniProt P21709); assay: Inhibition of EPHA1 (unknown origin) at 1 uM preincubated for 10 mins followed by substrate addition measured for 60 to 120 mins by HTRF assay relative to control; conditions: time 70-130 min
# Ephrin type-A receptor 1 (Homo sapiens), sequence (P21709 whole entry): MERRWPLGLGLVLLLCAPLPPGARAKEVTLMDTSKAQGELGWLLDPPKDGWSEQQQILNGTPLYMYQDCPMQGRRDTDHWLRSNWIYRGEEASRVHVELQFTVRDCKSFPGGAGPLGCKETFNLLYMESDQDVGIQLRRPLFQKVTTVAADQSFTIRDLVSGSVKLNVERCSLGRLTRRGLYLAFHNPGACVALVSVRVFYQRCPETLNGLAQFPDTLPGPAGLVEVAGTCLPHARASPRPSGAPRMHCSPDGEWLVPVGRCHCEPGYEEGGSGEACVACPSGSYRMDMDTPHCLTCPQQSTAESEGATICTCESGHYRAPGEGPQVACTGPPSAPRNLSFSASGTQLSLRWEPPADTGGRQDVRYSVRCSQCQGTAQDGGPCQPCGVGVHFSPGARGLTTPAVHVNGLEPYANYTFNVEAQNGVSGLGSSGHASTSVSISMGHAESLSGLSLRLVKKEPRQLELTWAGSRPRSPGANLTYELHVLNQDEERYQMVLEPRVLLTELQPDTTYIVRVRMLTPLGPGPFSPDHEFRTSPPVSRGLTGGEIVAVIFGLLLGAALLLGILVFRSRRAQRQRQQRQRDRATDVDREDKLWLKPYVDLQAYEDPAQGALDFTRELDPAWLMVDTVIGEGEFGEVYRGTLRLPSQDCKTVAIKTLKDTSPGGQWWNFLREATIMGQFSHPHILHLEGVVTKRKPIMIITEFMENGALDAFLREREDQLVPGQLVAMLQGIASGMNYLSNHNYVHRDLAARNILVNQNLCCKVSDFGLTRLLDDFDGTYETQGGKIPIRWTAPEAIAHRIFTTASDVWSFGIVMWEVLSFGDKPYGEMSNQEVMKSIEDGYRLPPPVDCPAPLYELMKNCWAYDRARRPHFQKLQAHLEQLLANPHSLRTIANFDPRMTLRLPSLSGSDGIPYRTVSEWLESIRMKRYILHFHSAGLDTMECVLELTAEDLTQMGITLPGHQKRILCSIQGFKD
# [16] = molecular target: Proto-oncogene tyrosine-protein kinase Src (Homo sapiens) (UniProt P12931); assay: Inhibition of SRC (unknown origin) at 1 uM preincubated for 10 mins followed by substrate addition measured for 60 to 120 mins by HTRF assay relative to control; conditions: time 70-130 min
# Homo sapiens = species: Homo sapiens; assay: Inhibition of FYN a (unknown origin) at 1 uM preincubated for 10 mins followed by substrate addition measured for 60 to 120 mins by HTRF assay relative to control; conditions: time 70-130 min
# [17] = molecular target: Receptor tyrosine-protein kinase erbB-2 (Homo sapiens) (UniProt P04626); assay: Inhibition of HER2 (unknown origin) at 1 uM preincubated for 10 mins followed by substrate addition measured for 60 to 120 mins by HTRF assay relative to control; conditions: time 70-130 min
# HL-60 [18] = assay: Effect on cell cycle at S phase in human HL-60 cells at 1 to 10 uM incubated for 48 hrs by […]PI staining based flow cytometry; type: functional; conditions: dose 1-10 µM
# [19] = molecular target: Tyrosine-protein kinase HCK (Homo sapiens) (UniProt P08631); assay: Inhibition of HCK (unknown origin) at 1 uM preincubated for 10 mins followed by substrate addition measured for 60 to 120 mins by HTRF assay relative to control; conditions: time 70-130 min
# Tyrosine-protein kinase HCK (Homo sapiens), sequence (P08631 2-526 limits assumed): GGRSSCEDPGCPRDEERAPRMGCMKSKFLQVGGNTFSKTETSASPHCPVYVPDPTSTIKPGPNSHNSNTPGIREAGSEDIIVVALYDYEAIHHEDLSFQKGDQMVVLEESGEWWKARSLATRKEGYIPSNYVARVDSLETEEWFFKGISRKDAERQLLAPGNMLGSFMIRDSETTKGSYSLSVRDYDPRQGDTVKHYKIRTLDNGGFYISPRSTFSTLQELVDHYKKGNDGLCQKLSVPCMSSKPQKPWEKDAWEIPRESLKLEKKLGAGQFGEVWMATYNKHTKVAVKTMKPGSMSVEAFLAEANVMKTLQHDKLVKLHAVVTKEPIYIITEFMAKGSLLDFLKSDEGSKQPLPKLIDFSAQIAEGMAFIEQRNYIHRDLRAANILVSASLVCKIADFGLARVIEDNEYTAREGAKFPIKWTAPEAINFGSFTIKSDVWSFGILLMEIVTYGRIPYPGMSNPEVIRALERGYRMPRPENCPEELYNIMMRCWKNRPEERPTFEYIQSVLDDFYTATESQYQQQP
# HL-60 [20] = assay: Induction of apoptosis in human HL-60 cells assessed as late apoptotic cells at 10 uM incubated for 48 hrs by annexin V-FITC/PI staining based flow cytometry (reference value: 1.07 %); type: functional
# [21] = molecular target: Epidermal growth factor receptor (Homo sapiens) (UniProt P00533); assay: Inhibition of EGFR (unknown origin) at 1 uM preincubated for 10 mins followed by substrate addition measured for 60 to 120 mins by HTRF assay relative to control; conditions: time 70-130 min
# Epidermal growth factor receptor (Homo sapiens), sequence (P00533 whole entry): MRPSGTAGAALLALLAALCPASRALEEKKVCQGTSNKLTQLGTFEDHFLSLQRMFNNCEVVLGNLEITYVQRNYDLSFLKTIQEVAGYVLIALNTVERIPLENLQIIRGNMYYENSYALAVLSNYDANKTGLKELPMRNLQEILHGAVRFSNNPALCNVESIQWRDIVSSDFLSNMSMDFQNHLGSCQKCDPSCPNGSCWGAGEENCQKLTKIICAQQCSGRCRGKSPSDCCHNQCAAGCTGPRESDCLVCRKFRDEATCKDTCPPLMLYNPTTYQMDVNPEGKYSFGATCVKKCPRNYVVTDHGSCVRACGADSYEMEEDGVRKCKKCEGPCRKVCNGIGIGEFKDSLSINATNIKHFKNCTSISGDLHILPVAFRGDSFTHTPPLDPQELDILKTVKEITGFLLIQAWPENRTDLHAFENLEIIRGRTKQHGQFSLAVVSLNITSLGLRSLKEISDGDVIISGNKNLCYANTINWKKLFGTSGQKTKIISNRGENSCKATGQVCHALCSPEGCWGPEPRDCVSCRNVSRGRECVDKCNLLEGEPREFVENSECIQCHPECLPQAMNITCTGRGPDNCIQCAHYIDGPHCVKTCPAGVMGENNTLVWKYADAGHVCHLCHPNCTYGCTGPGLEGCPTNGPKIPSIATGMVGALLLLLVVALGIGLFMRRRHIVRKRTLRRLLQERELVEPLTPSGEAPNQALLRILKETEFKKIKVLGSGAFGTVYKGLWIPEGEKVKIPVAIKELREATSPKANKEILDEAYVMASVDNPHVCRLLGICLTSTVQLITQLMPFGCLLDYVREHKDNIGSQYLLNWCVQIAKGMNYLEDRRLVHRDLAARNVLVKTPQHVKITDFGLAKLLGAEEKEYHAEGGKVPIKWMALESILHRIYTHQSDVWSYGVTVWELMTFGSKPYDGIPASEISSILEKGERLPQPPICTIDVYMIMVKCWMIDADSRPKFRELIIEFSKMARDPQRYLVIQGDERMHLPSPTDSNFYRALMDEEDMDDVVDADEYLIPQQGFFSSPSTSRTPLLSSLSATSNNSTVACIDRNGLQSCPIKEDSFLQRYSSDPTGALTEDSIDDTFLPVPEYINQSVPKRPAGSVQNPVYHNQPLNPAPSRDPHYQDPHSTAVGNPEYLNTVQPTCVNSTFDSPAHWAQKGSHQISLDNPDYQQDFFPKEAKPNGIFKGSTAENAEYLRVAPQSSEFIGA
# [22] = molecular target: Tyrosine-protein kinase BTK (Homo sapiens) (UniProt Q06187); assay: Inhibition of BTK (unknown origin) at 1 uM preincubated for 10 mins followed by substrate addition measured for 60 to 120 mins by HTRF assay relative to control; conditions: time 70-130 min
# Tyrosine-protein kinase BTK (Homo sapiens), sequence (Q06187 whole entry): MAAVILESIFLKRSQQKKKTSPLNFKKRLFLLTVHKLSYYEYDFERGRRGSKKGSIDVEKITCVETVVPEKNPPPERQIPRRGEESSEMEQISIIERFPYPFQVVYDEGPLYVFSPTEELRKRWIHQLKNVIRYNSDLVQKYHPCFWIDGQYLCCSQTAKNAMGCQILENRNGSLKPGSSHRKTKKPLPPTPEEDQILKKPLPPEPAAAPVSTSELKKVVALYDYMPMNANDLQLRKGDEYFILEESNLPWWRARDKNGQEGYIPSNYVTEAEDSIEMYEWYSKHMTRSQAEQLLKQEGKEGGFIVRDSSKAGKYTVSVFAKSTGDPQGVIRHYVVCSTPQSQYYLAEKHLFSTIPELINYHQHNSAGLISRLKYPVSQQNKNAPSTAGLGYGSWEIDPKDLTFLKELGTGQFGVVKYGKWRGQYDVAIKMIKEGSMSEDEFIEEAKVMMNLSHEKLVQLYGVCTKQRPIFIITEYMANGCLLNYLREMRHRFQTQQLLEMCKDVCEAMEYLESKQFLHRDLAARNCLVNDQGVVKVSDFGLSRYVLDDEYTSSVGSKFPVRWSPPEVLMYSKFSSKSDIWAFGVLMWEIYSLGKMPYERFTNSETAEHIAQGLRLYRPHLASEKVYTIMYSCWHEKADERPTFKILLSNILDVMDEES
# HL-60 [23] = assay: Induction of apoptosis in human HL-60 cells assessed as early apoptosis cells at 10 uM incubated for 48 hrs by annexin V-FITC/PI staining based flow cytometry (reference value: 2.08 %); type: functional
# [24] = molecular target: CDK18/Cyclin Y (Homo sapiens) (UniProt Q07002+Q8ND76); assay: Inhibition of CDK18/CyclinY (unknown origin) at 1 uM preincubated for 10 mins followed by substrate addition measured for 60 to 120 mins by HTRF assay relative to control; type: protein-complex assay; conditions: time 70-130 min
# SW480 = assay: Antiproliferative activity against human SW480 cells incubated for 48 hrs by CCK8 assay; type: functional
# [25] = Half life in Sprague-Dawley rat at 10 mg/kg, po; type: ADME, organism-based; conditions: in vivo
smiles,measurement,setting,value
NC(=O)c1cccc(-c2cnc3[nH]ccc3c2)c1,MRT,[1],2.47 h
same,inhibition,[2],18.9%
same,Activity,C1498,Active
same,inhibition,[3],5.13%
same,inhibition,[4],13.3%
same,inhibition,[5],0.16%
same,inhibition,[6],3.99%
same,IC50,CDK7/Cyclin H/MNAT1,0.428 µM
same,inhibition,[7],0%
same,inhibition,[8],28.1%
same,Activity,HL-60 [9],38%
same,inhibition,[10],6.16%
same,inhibition,[11],10.8%
same,half-life,[12],0.81 h
same,inhibition,[13],7.41%
same,inhibition,[14],0%
same,GI50,HT-29,> 50 µM
same,inhibition,[15],0%
same,inhibition,[16],0%
same,inhibition,Homo sapiens,0%
same,inhibition,[17],3.32%
same,Activity,HL-60 [18],inactive
same,inhibition,[19],2.33%
same,Activity,HL-60 [20],2.43%
same,inhibition,[21],8.01%
same,inhibition,[22],5.27%
same,Activity,HL-60 [23],0.15%
same,inhibition,[24],3.47%
same,GI50,SW480,> 50 µM
same,half-life,[25],1.4 h
